Tests used:
Apc^min/+ mice [1] = assay: Intestinal tumorigenesis in Apc^Min/+ mice gavaged with L. gallinarum; type: in vivo; conditions: male and female Apc^Min/+ mice with CH-223191 treatment
Protocol: […] Apc^Min/+ mice at 5 to 6 weeks old were divided into 3 groups with or without CH-223191 treatment: (1) control; (2) E. coli MG1655; and (3) L. gallinarum. L. gallinarum and E. coli MG1655 were cultured in MRS broth (Difco Laboratories, Detroit, MN) and BHI broth, respectively. After one day, 1.0×10^8 colony-forming units (CFUs) bacteria were collected and resuspended in 100 ul PBS. Mice were gavaged once daily for 8 weeks and body weight and stool were examined weekly.
Mouse colonoscopy (Karl Storz Endoskope, Tuttlingen, Germany) was performed prior to sacrifice. The colonoscope was inserted into the anus and advanced proximally under direct visualization, facilitated by air insufflation, and representative pictures of the colon tumor from each group were recorded. After 8 weeks of gavage, mice were anaesthetized and sacrificed. Small intestines and colons of mice were longitudinally opened and rinsed with PBS. Total number of tumors in small intestine and colon were recorded. Size of each tumor was measured using previous published formula^42. All animal studies were performed in accordance with guidelines approved by the Animal Experimentation Ethics Committee of The Chinese University of Hong Kong.
To investigate the effect of L. gallinarum on colorectal tumorigenesis, Apc^Min/+ mice were first used. […]

[2] = molecular target: T1, aryl hydrocarbon receptor (AhR) (Homo sapiens, UniProt P35869); assay: Transcription of AhR after AhR antagonist; type: cell-based; conditions: 100 nM
T1 construct: endogenous in cells

[3] = system: CRC cell lines (HCT116 and LoVo); assay: Cell viability (MTT) assay, CRC cell lines; type: cell-based
Protocol: After culturing L. gallinarum or E. coli MG1655 for 1-2 days, the bacterial concentration in each culture medium was measured using NanoDrop spectrophotometer (NanoDrop Technologies, Wilmington, DE). BHI cultures were diluted to ensure equal concentrations of L. gallinarum and E. coli. Culture supernatants were then collected by centrifugation at 5,000 rpm for 10 minutes, followed by sterile filtration with a 0.22-μm membrane. Filtrates were collected and termed as L. gallinarum culture supernatant (LGCS) or E. coli MG1655 culture supernatant (ECCS). Bacterial culture supernatant was separated into low-molecular-weight (LMW) and high-molecular-weight (HMW) using Amicon Ultra-15 Centrifugal Filter Units with a pore size of 3 kilodalton (kDa, Millipore, Bedford, MA). After centrifugation in a swinging bucket rotor at 4,000 g for 30 minutes, cells were cultured in medium containing […] or control broth (LMW, 10%; HMW, 1%). The bacterial supernatants were heated at 100° C. for 30 minutes or treated with proteinase k (50 ug/ml; QIAGEN GmbH, Hilden, Germany). […] Cell proliferation was measured by MTT assay for 5 consecutive days. The amount of MTT formazan product was determined by measuring absorbance at a wavelength of 570 nm (OD570) with a microplate reader (Multiskan GO Microplate Spectrophotometer, Thermo Scientific, Vantaa, Finland). […]

Apc^min/+ mice [4] = assay: Gavage of ILA into Apc^Min/+ mice; type: in vivo; conditions: gavage 20 mg/kg
Protocol: Functional investigation of ILA in CRC tumorigenesis was then performed in vivo. […] Moreover, additional experiments were performed to investigate if antagonizing ILA could abrogate L. gallinarum medicated anti-cancer effect. […] Thus, ILA can contribute, at least in part, to the tumor-suppressive effect of L. gallinarum.

[5] = system: CRC cell lines, HCT116 and LoVo; assay: Apoptosis assay (Annexin V-PE / 7-AAD flow cytometry), CRC cell lines; type: cell-based; conditions: FIG. 18F
Protocol: Cells were plated on 6-well plates 24 hours prior to treatment, and cultured in medium containing 10% […] or control broth. CRC patient-derived organoids were cultured on 6-well plates, and 10% […] or control broth was added to Matrigel and growth medium. After treatment, cells and organoids were digested in 0.25% trypsin-EDTA (Gibco-Invitrogen Corp., Grand Island, NY) and TrypLE, respectively. For apoptosis assay, the proportion of apoptotic cells was evaluated by dual staining with Annexin V-PE and 7-Aminoactinomycin D (7-AAD) (BD Pharmingen, San Jose, CA). Combination of Annexin V-PE and 7-AAD staining distinguished early apoptotic cells (Annexin V+, 7-AAD-) and late apoptotic cells (Annexin V+, 7-AAD+). For cell cycle analysis, cells treated with 10% […] or control broth for 1 day were fixed and stained with 50 μg/ml propidium iodide (PI) (BD Pharmingen). Cell cycle of all stained cells were analyzed using […] cell sorter (BD Biosciences, San Jose, CA).

T1 sequence (P35869 11-848): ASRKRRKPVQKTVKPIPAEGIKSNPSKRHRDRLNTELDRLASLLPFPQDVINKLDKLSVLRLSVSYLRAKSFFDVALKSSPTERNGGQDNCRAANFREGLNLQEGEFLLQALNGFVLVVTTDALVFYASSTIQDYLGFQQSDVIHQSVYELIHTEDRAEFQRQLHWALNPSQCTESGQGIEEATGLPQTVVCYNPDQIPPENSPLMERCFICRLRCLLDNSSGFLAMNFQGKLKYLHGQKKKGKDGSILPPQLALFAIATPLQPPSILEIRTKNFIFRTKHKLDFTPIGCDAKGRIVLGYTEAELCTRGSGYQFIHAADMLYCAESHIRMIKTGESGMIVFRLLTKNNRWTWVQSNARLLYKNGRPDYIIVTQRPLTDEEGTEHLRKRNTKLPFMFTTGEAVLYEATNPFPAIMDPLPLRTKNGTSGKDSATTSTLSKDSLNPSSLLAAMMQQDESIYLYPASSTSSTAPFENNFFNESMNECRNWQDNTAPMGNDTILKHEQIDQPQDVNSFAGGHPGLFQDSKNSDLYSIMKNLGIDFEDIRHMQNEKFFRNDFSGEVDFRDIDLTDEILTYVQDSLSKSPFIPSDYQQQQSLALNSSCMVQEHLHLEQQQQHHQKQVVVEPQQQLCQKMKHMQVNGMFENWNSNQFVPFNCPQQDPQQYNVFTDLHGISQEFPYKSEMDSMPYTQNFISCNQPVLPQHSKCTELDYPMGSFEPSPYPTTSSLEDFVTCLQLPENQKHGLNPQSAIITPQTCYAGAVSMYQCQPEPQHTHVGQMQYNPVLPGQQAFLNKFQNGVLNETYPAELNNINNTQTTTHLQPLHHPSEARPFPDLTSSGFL

SMILES: Cc1ccccc1N=Nc1ccc(NC(=O)c2ccnn2C)c(C)c1 [CH-223191]
- effect on CRC suppression by L. gallinarum in Apc^Min/+ mice (Apc^min/+ mice [1]): abolished the effect of L. gallinarum in suppressing CRC
- transcription of AhR [2]: significantly suppressed
- effect on CRC suppression by L. gallinarum in vitro ([3]; CRC cells pre-treated with 100 nM for 12 hours before culture supernatant): abolished the effect of L. gallinarum in suppressing CRC

SMILES: O=C(O)C(O)Cc1c[nH]c2ccccc12 (stereo not drawn) [ILA, indole-3-lactic acid]
- cells with positive TUNEL staining, adjacent normal tissues (Apc^min/+ mice [4]): but not in adjacent normal tissues
- cells with positive TUNEL staining, tumor tissues (Apc^min/+ mice [4]): increased
- tumor number (Apc^min/+ mice [4]): significantly reduced
- tumor size (Apc^min/+ mice [4]): significantly reduced
- cell apoptosis of CRC cells [5]: significantly increased
- cell viability of CRC cells ([3]; same amount of ILA as produced from L. gallinarum): decreased substantially
